# Source: ChEMBL document CHEMBL4627327, “Antibacterial activity of singly and doubly modified salinomycin derivatives” (Bioorg Med Chem Lett, 2020)
# Activity calls are given as the source filed them. The calls are words filed in the database; no cut-off is given here.
# Assays:
# [1] = test system: Pseudomonas aeruginosa; assay: Antibacterial activity against Pseudomonas aeruginosa ATCC 15442 assessed as bacterial growth inhibition measured after 18 hrs by CLSI protocol based two-fold serial microdilution method; assay type: functional, organism-based
# [2] = test system: Pseudomonas aeruginosa; assay: Antibacterial activity against Pseudomonas aeruginosa ATCC 27853 assessed as bacterial growth inhibition measured after 18 hrs by CLSI protocol based two-fold serial microdilution method; assay type: functional, organism-based
# [3] = test system: Escherichia coli; assay: Antibacterial activity against Escherichia coli NCTC 8196 assessed as bacterial growth inhibition measured after 18 hrs by CLSI protocol based two-fold serial microdilution method; assay type: functional, organism-based
# [4] = test system: Escherichia coli; assay: Antibacterial activity against Escherichia coli ATCC 25922 assessed as bacterial growth inhibition measured after 18 hrs by CLSI protocol based two-fold serial microdilution method; assay type: functional, organism-based
# [5] = test system: Staphylococcus epidermidis; assay: Antibacterial activity against methicillin-resistant Staphylococcus epidermidis isolate 574 assessed as bacterial growth inhibition measured after 18 hrs by CLSI protocol based two-fold serial microdilution method; assay type: functional; conditions: isolate 574, 18 h
# [6] = test system: Staphylococcus epidermidis; assay: Antibacterial activity against methicillin-resistant Staphylococcus epidermidis isolate 602 assessed as bacterial growth inhibition measured after 18 hrs by CLSI protocol based two-fold serial microdilution method; assay type: functional; conditions: isolate 602, 18 h
# [7] = test system: Staphylococcus epidermidis; assay: Antibacterial activity against methicillin-resistant Staphylococcus epidermidis isolate 603 assessed as bacterial growth inhibition measured after 18 hrs by CLSI protocol based two-fold serial microdilution method; assay type: functional; conditions: isolate 603, 18 h
# [8] = test system: Staphylococcus epidermidis; assay: Antibacterial activity against methicillin-resistant Staphylococcus epidermidis isolate 609 assessed as bacterial growth inhibition measured after 18 hrs by CLSI protocol based two-fold serial microdilution method; assay type: functional; conditions: isolate 609, 18 h
# [9] = test system: Staphylococcus epidermidis; assay: Antibacterial activity against methicillin-resistant Staphylococcus epidermidis isolate 610 assessed as bacterial growth inhibition measured after 18 hrs by CLSI protocol based two-fold serial microdilution method; assay type: functional; conditions: isolate 610, 18 h
# [10] = test system: Staphylococcus epidermidis; assay: Antibacterial activity against methicillin-resistant Staphylococcus epidermidis isolate 654 assessed as bacterial growth inhibition measured after 18 hrs by CLSI protocol based two-fold serial microdilution method; assay type: functional; conditions: isolate 654, 18 h
# [11] = test system: Staphylococcus epidermidis; assay: Antibacterial activity against methicillin-resistant Staphylococcus epidermidis isolate 660 assessed as bacterial growth inhibition measured after 18 hrs by CLSI protocol based two-fold serial microdilution method; assay type: functional; conditions: isolate 660, 18 h
# [12] = test system: Staphylococcus aureus; assay: Antibacterial activity against methicillin-resistant Staphylococcus aureus isolate 583 assessed as bacterial growth inhibition measured after 18 hrs by CLSI protocol based two-fold serial microdilution method; assay type: functional; conditions: isolate 583, 18 h
# [13] = test system: Staphylococcus aureus; assay: Antibacterial activity against methicillin-resistant Staphylococcus aureus isolate 584 assessed as bacterial growth inhibition measured after 18 hrs by CLSI protocol based two-fold serial microdilution method; assay type: functional; conditions: isolate 584, 18 h
# [14] = test system: Staphylococcus aureus; assay: Antibacterial activity against methicillin-resistant Staphylococcus aureus isolate 612 assessed as bacterial growth inhibition measured after 18 hrs by CLSI protocol based two-fold serial microdilution method; assay type: functional; conditions: isolate 612, 18 h
# [15] = test system: Staphylococcus aureus; assay: Antibacterial activity against methicillin-resistant Staphylococcus aureus isolate 620 assessed as bacterial growth inhibition measured after 18 hrs by CLSI protocol based two-fold serial microdilution method; assay type: functional; conditions: isolate 620, 18 h
# [16] = test system: Staphylococcus aureus; assay: Antibacterial activity against methicillin-resistant Staphylococcus aureus isolate 621 assessed as bacterial growth inhibition measured after 18 hrs by CLSI protocol based two-fold serial microdilution method; assay type: functional; conditions: isolate 621, 18 h
# [17] = test system: Staphylococcus aureus; assay: Antibacterial activity against methicillin-resistant Staphylococcus aureus isolate 750 assessed as bacterial growth inhibition measured after 18 hrs by CLSI protocol based two-fold serial microdilution method; assay type: functional; conditions: isolate 750, 18 h
# [18] = test system: Staphylococcus aureus; assay: Antibacterial activity against methicillin-resistant Staphylococcus aureus isolate 770 assessed as bacterial growth inhibition measured after 18 hrs by CLSI protocol based two-fold serial microdilution method; assay type: functional; conditions: isolate 770, 18 h
# [19] = test system: Staphylococcus epidermidis; assay: Inhibition of biofilm formation in Staphylococcus epidermidis ATCC 35984 at 1 to 8 ug/ml measured after 24 hrs by crystal violet staining based assay; assay type: functional, organism-based
# [20] = test system: Staphylococcus epidermidis; assay: Inhibition of biofilm formation in Staphylococcus epidermidis ATCC 12228 at 1 to 8 ug/ml measured after 24 hrs by crystal violet staining based assay; assay type: functional, organism-based
# [21] = Genotoxicity in rec negative Bacillus subtilis M45 assessed as diameter of inhibition zone at 256 ug measured after 24 hrs by rec-assay; assay type: toxicity; conditions: in vivo
# [22] = Genotoxicity in rec-positive Bacillus subtilis H17 assessed as diameter of inhibition zone at 256 ug measured after 24 hrs by rec-assay; assay type: toxicity; conditions: in vivo
SMILES,Activity [1],Activity [2],Activity [3],Activity [4],other results
CC[C@@H](C(=O)[C@@H](C)[C@@H](O)[C@H](C)[C@@H]1O[C@@H]([C@@H](CC)C(=O)NCCc2ccc(F)cc2)CC[C@@H]1C)[C@H]1O[C@]2(C=C[C@@H](O)[C@]3(CC[C@@](C)([C@H]4CC[C@](O)(CC)[C@H](C)O4)O3)O2)[C@H](C)C[C@@H]1C,inactive,inactive,inactive,inactive,MIC [5]: 18.4 µM; MIC [6]: 36.7 µM; MIC [7]: 18.4 µM; MIC [8]: 18.4 µM; MIC [9]: 36.7 µM; MIC [10]: 36.7 µM; MIC [11]: 36.7 µM; MIC [12]: 18.4 µM; MIC [13]: 18.4 µM; MIC [14]: 36.7 µM; MIC [15]: 18.4 µM; MIC [16]: 18.4 µM; MIC [17]: 18.4 µM; MIC [18]: 36.7 µM; inhibition [19]: Active; inhibition [20]: Active; diameter of the inhibition zone (DIZ) [21]: 27 mm; diameter of the inhibition zone (DIZ) [22]: 20 mm
CC[C@@H](C(=O)[C@@H](C)[C@@H](O)[C@H](C)[C@@H]1O[C@@H]([C@@H](CC)C(=O)NCCc2ccc(F)cc2)CC[C@@H]1C)[C@H]1O[C@]2(C=CC(=O)[C@]3(CC[C@@](C)([C@H]4CC[C@](O)(CC)[C@H](C)O4)O3)O2)[C@H](C)C[C@@H]1C,inactive,inactive,inactive,inactive,
CC[C@@H](C(=O)[C@@H](C)[C@@H](O)[C@H](C)[C@@H]1O[C@@H]([C@@H](CC)C(=O)OCC(F)(F)F)CC[C@@H]1C)[C@H]1O[C@]2(C=CC(=O)[C@]3(CC[C@@](C)([C@H]4CC[C@](O)(CC)[C@H](C)O4)O3)O2)[C@H](C)C[C@@H]1C,inactive,inactive,inactive,inactive,
C#CCNC(=O)[C@H](CC)[C@H]1CC[C@H](C)[C@H]([C@@H](C)[C@H](O)[C@H](C)C(=O)[C@H](CC)[C@H]2O[C@]3(C=CC(=O)[C@]4(CC[C@@](C)([C@H]5CC[C@](O)(CC)[C@H](C)O5)O4)O3)[C@H](C)C[C@@H]2C)O1,inactive,inactive,inactive,inactive,
O=[N+]([O-])c1cc[n+]([O-])c2ccccc12 [4-NITROQUINOLINE-1-OXIDE],,,,,diameter of the inhibition zone (DIZ) [21]: 34 mm; diameter of the inhibition zone (DIZ) [22]: 22 mm
C#CCOC(=O)[C@H](CC)[C@H]1CC[C@H](C)[C@H]([C@@H](C)[C@H](O)[C@H](C)C(=O)[C@H](CC)[C@H]2O[C@]3(C=C[C@@H](O)[C@]4(CC[C@@](C)([C@H]5CC[C@](O)(CC)[C@H](C)O5)O4)O3)[C@H](C)C[C@@H]2C)O1,inactive,inactive,inactive,inactive,
CC[C@@H](C(=O)[C@@H](C)[C@@H](O)[C@H](C)[C@@H]1O[C@@H]([C@@H](CC)C(=O)NCC(F)(F)F)CC[C@@H]1C)[C@H]1O[C@]2(C=C[C@@H](O)[C@]3(CC[C@@](C)([C@H]4CC[C@](O)(CC)[C@H](C)O4)O3)O2)[C@H](C)C[C@@H]1C,inactive,inactive,inactive,inactive,
